≈ marks a conversion by molar mass, not a printed value.
How the values were obtained:
[1] = test system: Salmonella typhimurium 14028; assay: agar disc-diffusion antibacterial assay; format: cell-based; conditions: Salmonella enterica; S. typhimurium 14028; disc loaded with 100 μg; 37 °C, 24 h; read-out: diameter of inhibition zone
Description: (§1) The clinical control strains of Gram-negative bacteria (Escherichia coli 8739, Salmonella typhimurium 14028, Pseudomonas aeruginosa 27853) and Gram-positive bacteria (Bacillus subtilis 6633, Bacillus cereus 33018, Staphylococcus aureus 25923), were obtained from microbial inoculums by subculturing microorganisms into nutrient broth (NB) at 37 °C for 18 h, and were adjusted to 0.125 A° at 625 nm (equivalent to a McFarland 0.5) in 2-fold NB. A 100 μL measure of NB containing each test microorganism was added to the sterile Petri dishes. Antibacterial testing was carried out on all compounds (3a,b–14) using the agar disc-diffusion method [40]. Sterile nutrients were inoculated with 100 μL cell suspension of the chosen test microorganism and poured into Petri dishes (20 cm diameter). Filter paper discs (Whatman, No.3, diameter 5 mm) were loaded with 10 μL containing 100 μg of the tested compounds, as well as the standard drug. Composite compound disks were placed on the surface of inoculated agar plates and kept at low temperatures before incubation in order to support the swelling and diffusion of the microbial growth. The plates were incubated at 37 °C in the incubator. Experiments were performed in duplicate and the diameters of inhibition zones were measured after 24 h.

[2] = test system: Pseudomonas aeruginosa 27853; assay: agar disc-diffusion antibacterial assay; format: cell-based; conditions: P. aeruginosa 27853, disc loaded with 100 μg, 37 °C, 24 h, read-out: diameter of inhibition zone
Description: (§2) The clinical control strains of Gram-negative bacteria (Escherichia coli 8739, Salmonella typhimurium 14028, Pseudomonas aeruginosa 27853) and Gram-positive bacteria (Bacillus subtilis 6633, Bacillus cereus 33018, Staphylococcus aureus 25923), were obtained from microbial inoculums by subculturing microorganisms into nutrient broth (NB) at 37 °C for 18 h, and were adjusted to 0.125 A° at 625 nm (equivalent to a McFarland 0.5) in 2-fold NB. A 100 μL measure of NB containing each test microorganism was added to the sterile Petri dishes. Antibacterial testing was carried out on all compounds (3a,b–14) using the agar disc-diffusion method [40]. Sterile nutrients were inoculated with 100 μL cell suspension of the chosen test microorganism and poured into Petri dishes (20 cm diameter). Filter paper discs (Whatman, No.3, diameter 5 mm) were loaded with 10 μL containing 100 μg of the tested compounds, as well as the standard drug. Composite compound disks were placed on the surface of inoculated agar plates and kept at low temperatures before incubation in order to support the swelling and diffusion of the microbial growth. The plates were incubated at 37 °C in the incubator. Experiments were performed in duplicate and the diameters of inhibition zones were measured after 24 h. A diameter of inhibition zone (DIZ) assay was performed to evaluate the antimicrobial potential of the compounds against the tested organisms compared with reference antibiotics.

Bacillus subtilis 6633 [3] = assay: agar disc-diffusion antibacterial assay; format: cell-based; conditions: B. subtilis 6633, disc loaded with 100 μg, 37 °C, 24 h, read-out: diameter of inhibition zone
Description: (§3) A 100 μL measure of NB containing each test microorganism was added to the sterile Petri dishes. Antibacterial testing was carried out on all compounds (3a,b–14) using the agar disc-diffusion method [40]. Sterile nutrients were inoculated with 100 μL cell suspension of the chosen test microorganism and poured into Petri dishes (20 cm diameter). Filter paper discs (Whatman, No.3, diameter 5 mm) were loaded with 10 μL containing 100 μg of the tested compounds, as well as the standard drug. Composite compound disks were placed on the surface of inoculated agar plates and kept at low temperatures before incubation in order to support the swelling and diffusion of the microbial growth. The plates were incubated at 37 °C in the incubator. Experiments were performed in duplicate and the diameters of inhibition zones were measured after 24 h. A diameter of inhibition zone (DIZ) assay was performed to evaluate the antimicrobial potential of the compounds against the tested organisms compared with reference antibiotics.

Bacillus cereus 33018 [4] = assay: agar disc-diffusion antibacterial assay; format: cell-based; conditions: B. cereus 33018, disc loaded with 100 μg, 37 °C, 24 h, read-out: diameter of inhibition zone
Description: as §3

[5] = test system: Staphylococcus aureus 25923; assay: agar disc-diffusion antibacterial assay; format: cell-based; conditions: S. aureus 25923, disc loaded with 100 μg, 37 °C, 24 h, read-out: diameter of inhibition zone
Description: as §2

[6] = test system: Salmonella typhimurium 14028; assay: MIC determination by dilution procedure; format: cell-based; conditions: Salmonella enterica; S. typhimurium 14028; dilutions 125-1.95 μg/mL; read-out: minimum inhibitory concentration (MIC)
Description: as §1

[7] = test system: Pseudomonas aeruginosa 27853; assay: MIC determination by dilution procedure; format: cell-based; conditions: dilutions 125-1.95 μg/mL; for MIC: Pseudomonas aeruginosa, 27853, P. aeruginosa 27853, read-out: minimum inhibitory concentration (MIC)
Bacillus subtilis 6633 [8] = assay: MIC determination by dilution procedure; format: cell-based; conditions: B. subtilis 6633, dilutions 125-1.95 μg/mL, read-out: minimum inhibitory concentration (MIC)
Description: as §3

Bacillus cereus 33018 [9] = assay: MIC determination by dilution procedure; format: cell-based; conditions: B. cereus 33018, dilutions 125-1.95 μg/mL, read-out: minimum inhibitory concentration (MIC)
Description: as §3

[10] = test system: Staphylococcus aureus 25923; assay: MIC determination by dilution procedure; format: cell-based; conditions: dilutions 125-1.95 μg/mL; for MIC: Staphylococcus aureus, 25923, S. aureus 25923, read-out: minimum inhibitory concentration (MIC)
Description: as §3

Escherichia coli 8739 [11] = assay: agar disc-diffusion antibacterial assay; format: cell-based; conditions: E. coli 8739, disc loaded with 100 μg, 37 °C, 24 h, read-out: diameter of inhibition zone
Description: as §2

Escherichia coli 8739 [12] = assay: MIC determination by dilution procedure; format: cell-based; conditions: E. coli 8739, dilutions 125-1.95 μg/mL, read-out: minimum inhibitory concentration (MIC)

| Structure (SMILES) | zone of inhibition at 100 µg/disc [1] | zone of inhibition at 100 µg/disc [2] | zone of inhibition at 100 µg/disc (Bacillus subtilis 6633 [3]) | zone of inhibition at 100 µg/disc (Bacillus cereus 33018 [4]) | zone of inhibition at 100 µg/disc [5] | MIC [6] | MIC [7] | MIC (Bacillus subtilis 6633 [8]) | MIC (Bacillus cereus 33018 [9]) | MIC [10] | melting point | zone of inhibition at 100 µg/disc (Escherichia coli 8739 [11]) | MIC (Escherichia coli 8739 [12]) | minimum inhibitory concentration (MIC) ([7]; P. aeruginosa 27853) | minimum inhibitory concentration (MIC) ([10]; S. aureus 25923) |
| --- | --- | --- | --- | --- | --- | --- | --- | --- | --- | --- | --- | --- | --- | --- | --- |
| NNCC(=O)Nc1c2c(nc3c1sc1nc(-c4ccco4)cc(-c4cccs4)c13)CCCC2 [Compound 7b, N-(2-(furan-2-yl)-4-(thiophen-2-yl)-6,7,8,9-tetrahydropyrido[3′,2′:4,5]thieno[3,2-b]quinolin-10-yl)-2-hydrazinylacetamide] | 10 mm | 12 mm | 8 mm | 11 mm | 10 mm | 31.2 µg/mL (≈ 65.7 µM) | 31.2 µg/mL (≈ 65.7 µM) | 62.5 µg/mL (≈ 131 µM) | 31.2 µg/mL (≈ 65.7 µM) | 31.2 µg/mL (≈ 65.7 µM) | 306 °C |  |  |  |  |
| COc1ccc(-c2cc(-c3ccco3)nc3sc4c(NC(=O)CNN=Cc5ccc(OC)c(OC)c5)c5c(nc4c23)CCCC5)cc1 [Compound 8a, 2-(2-(3,4-Dimethoxybenzylidene)hydrazinyl)-N-(2-(furan-2-yl)-4-(4-methoxyphenyl)-6,7,8,9-tetrahydropyrido[3′,2′:4,5]thieno[3,2-b]quinolin-10-yl)acetamide] |  |  | 11 mm | 9 mm | 11 mm |  |  | 31.2 µg/mL (≈ 48.2 µM) | 31.2 µg/mL (≈ 48.2 µM) | 31.2 µg/mL (≈ 48.2 µM) | 187 °C |  |  |  |  |
| CC(=O)CC(=O)Nc1c2c(nc3c1sc1nc(-c4ccco4)cc(-c4cccs4)c13)CCCC2 [Compound 13, N-(2-(furan-2-yl)-4-(thiophen-2-yl)-6,7,8,9-tetrahydropyrido[3′,2′:4,5]thieno[3,2-b]quinolin-10-yl)-3-oxobutanamide] | 7 mm | 11 mm | 15 mm | 16 mm | 12 mm | 62.5 µg/mL (≈ 128 µM) | 31.2 µg/mL (≈ 64.1 µM) | 15.6 µg/mL (≈ 32.1 µM) | 15.6 µg/mL (≈ 32.1 µM) | 31.2 µg/mL (≈ 64.1 µM) | 217 to 218 °C | 8 mm | 62.5 µg/mL (≈ 128 µM) |  |  |
| COc1ccc(-c2cc(-c3ccco3)nc3sc4c(N=Cc5ccc(N(C)C)cc5)c5c(nc4c23)CCCC5)cc1 [Compound 12a, 4-(((2-(furan-2-yl)-4-(4-methoxyphenyl)-6,7,8,9-tetrahydropyrido[3′,2′:4,5]thieno[3,2-b]quinolin-10-yl)imino)methyl)-N,N-dimethylaniline] | 8 mm | 9 mm | 13 mm | 11 mm | 10 mm | 62.5 µg/mL (≈ 112 µM) | 62.5 µg/mL (≈ 112 µM) | 31.2 µg/mL (≈ 55.9 µM) | 31.2 µg/mL (≈ 55.9 µM) | 31.2 µg/mL (≈ 55.9 µM) | 149 °C | 11 mm | 31.2 µg/mL (≈ 55.9 µM) |  |  |
| COc1ccc(-c2cc(-c3ccco3)nc3sc4c(NC(=O)CNN=Cc5ccc(C)cc5)c5c(nc4c23)CCCC5)cc1 [Compound 8b, N-(2-(furan-2-yl)-4-(4-methoxyphenyl)-6,7,8,9-tetrahydropyrido[3′,2′:4,5]thieno[3,2-b]quinolin-10-yl)-2-(2-(4-methylbenzylidene)hydrazinyl)acetamide] |  |  | 9 mm | 9 mm | 8 mm |  |  | 31.2 µg/mL (≈ 51.9 µM) | 62.5 µg/mL (≈ 104 µM) | 62.5 µg/mL (≈ 104 µM) | 122 °C |  |  |  |  |
| N#Cc1c(-c2cccs2)cc(-c2ccco2)nc1SCC(N)=O [Compound 2b, 2-((3-Cyano-6-(furan-2-yl)-4-(thiophen-2-yl)pyridin-2-yl)thio)acetamide] |  |  |  |  |  |  |  |  |  |  | 242 °C |  |  |  |  |
| COc1ccc(-c2cc(-c3ccco3)nc3sc4c(N)c5c(nc4c23)CCCC5)cc1 [Compound 5a, 2-(Furan-2-yl)-4-(4-methoxyphenyl)-6,7,8,9-tetrahydropyrido[3′,2′:4,5]thieno[3,2-b]quinolin-10-amine] |  | 12 mm | 10 mm | 13 mm |  |  | 31.2 µg/mL (≈ 73.1 µM) | 31.2 µg/mL (≈ 73.1 µM) | 31.2 µg/mL (≈ 73.1 µM) |  | 231 °C | 12 mm | 31.2 µg/mL (≈ 73.1 µM) |  |  |
| COc1ccc(-c2cc(-c3ccco3)nc3sc4c(NC(=O)CN5CCOCC5)c5c(nc4c23)CCCC5)cc1 [Compound 9a, N-(2-(furan-2-yl)-4-(4-methoxyphenyl)-6,7,8,9-tetrahydropyrido[3′,2′:4,5]thieno[3,2-b]quinolin-10-yl)-2-morpholinoacetamide] |  | 11 mm | 14 mm | 16 mm | 12 mm | 15.6 µg/mL (≈ 28.2 µM) | 15.6 µg/mL (≈ 28.2 µM) | 15.6 µg/mL (≈ 28.2 µM) | 15.6 µg/mL (≈ 28.2 µM) | 15.6 µg/mL (≈ 28.2 µM) | 143 °C |  | 15.6 µg/mL (≈ 28.2 µM) | 31.25 µg/mL (≈ 56.3 µM) | 31.25 µg/mL (≈ 56.3 µM) |
| COc1ccc(-c2cc(-c3ccco3)nc3sc4c(NS(=O)(=O)c5ccccc5)c5c(nc4c23)CCCC5)cc1 [Compound 10, N-(2-(Furan-2-yl)-4-(4-methoxyphenyl)-6,7,8,9-tetrahydropyrido[3′,2′:4,5]thieno [3,2-b]quinolin-10-yl)benzenesulfonamide] |  |  | 8 mm | 9 mm | 9 mm |  |  | 62.5 µg/mL (≈ 110 µM) | 62.5 µg/mL (≈ 110 µM) | 31.2 µg/mL (≈ 55 µM) | 303 to 304 °C |  |  |  |  |
| CC1(C)S[C@@H]2[C@H](NC(=O)[C@H](N)c3ccc(O)cc3)C(=O)N2[C@H]1C(=O)O [Amoxicillin, amoxicillin trihydrate, reference compound] | 21 mm | 18 mm | 17 mm | 19 mm | 19 mm | 15.6 µg/mL | 15.6 µg/mL | 15.6 µg/mL | 15.6 µg/mL | 15.6 µg/mL |  | 20 mm | 15.6 µg/mL |  |  |
| COc1ccc(-c2cc(-c3ccco3)nc(SCC(N)=O)c2C#N)cc1 [Compound 2a, 2-((3-Cyano-6-(furan-2-yl)-4-(4-methoxyphenyl)pyridin-2-yl)thio)acetamide] |  |  |  |  |  |  |  |  |  |  | 246 °C |  |  |  |  |
| COc1ccc(-c2cc(-c3ccco3)nc3sc4c(NC(=O)Nc5ccccc5)c5c(nc4c23)CCCC5)cc1 [Compound 11, 1-(2-(Furan-2-yl)-4-(4-methoxyphenyl)-6,7,8,9-tetrahydropyrido[3′,2′:4,5]thieno [3,2-b]quinolin-10-yl)-3-phenylurea] |  |  | 9 mm | 8 mm | 8 mm |  |  | 31.2 µg/mL (≈ 57.2 µM) | 62.5 µg/mL (≈ 114 µM) | 62.5 µg/mL (≈ 114 µM) | 118 to 120 °C |  |  |  |  |
| NC(=O)c1sc2nc(-c3ccco3)cc(-c3cccs3)c2c1N=C1CCCCC1 [Compound 4b, 3-(Cyclohexylideneamino)-6-(furan-2-yl)-4-(thiophen-2-yl)thieno[2,3-b]pyridine-2-carboxamide] | 15 mm |  | 10 mm |  | 12 mm | 15.6 µg/mL (≈ 37.1 µM) |  | 31.2 µg/mL (≈ 74.1 µM) |  | 31.2 µg/mL (≈ 74.1 µM) | 320 to 322 °C | 12 mm | 31.2 µg/mL (≈ 74.1 µM) |  |  |
